Results: patent US12714682B2, “Calixarene compounds and uses thereof” (UNIVERSITÄT WIEN, priority 2019, dated 2026)
Entries after “also recorded” stand apart in the source; their conditions may differ.

Columns and labels:
NQO1 = NQO1 immunoblot in HeLa cells; assay type: cell-based, human; settings: 48 hours
Description: A specific anti-oxidative effect or activity of a compound is proven, if induces the expression of NQO1 in mammalian cells to a higher level than over vehicle treated cells, preferably by ~3 fold when the compound is used at 500 μM, as determined by a standard assay: Semi-quantitative western blot analysis. HeLa cells are treated with vehicle, 50, 100 and 500 μM of the compound for 48 h and lysed in Triton X-100 extraction buffer (50 mM HEPES [pH 7.4], 140 mM NaCl, 1% Triton X-100, 1 mM EDTA, 0.3 mM DTT and Complete Protease Inhibitor Cocktail). 25 μg of whole cell extract are separated on a 10% SDS-PAGE, after transfer to a PVDF membrane (Bio-Rad), proteins detected by use of standard immunoblotting procedures. […] For the analysis and quantification of the protein levels, Gel Analyzer from ImageJ (National Institute of Health, USA: http://imagej.nih.gov/ij) is used.
To verify experimentally the anti-oxidative effect of SCA-744, the induction of one of these three genes, NQO1, a major anti-oxidative enzyme was investigated. […] In fact, no NQO1 was detected in control cells under the applied experimental conditions, while a prominent signal was induced even at 50 μM, the lowest concentration of SCA-744 tested, that increased by increasing SCA-744 concentrations (approximately 3.5 fold higher signal at 500 μM). […]

LDL-R [1] = assay: LDL-R immunofluorescence microscopy in HeLa cells; assay type: cell-based, human; settings: 50 and 500 μM, 48 hours
Description: In another set of experiments, HeLa cells were treated the same way (50 and 500 μM of SCA-744 for 48 hours). Cells were fixed with 4% paraformaldehyde solution for 10 min at RT and permeabilized with 0.1% Triton X-100 for 15 min at RT and analysed by immunofluorescence microscopy using the same anti-human LDLR antibody employed for the immunoblotting. This detection method was more sensitive, and indicated the presence of LDL-R even in control cells.

HELA cells = assay: Protection from H2O2 induced stress; assay type: cell-based
Description: Using an incubation time of 24 h, it was sufficient to determine the toxicity and rescue effect of SCA-744 in HELA cells.

LDL-R [2] = assay: LDL-R immunoblot in HeLa cells; assay type: cell-based, human; settings: 50 or 500 μM, 24 or 48 hours, no signal in control
Description: As illustrated in the Table 1 (FIG. 10), the SCA-744 affects the expression of several genes involved in lipid metabolism, such as the Low-density Lipoprotein Receptor, a major determinant of cholesterol levels in plasma. LDLR. […] To assess directly the effect of SCA-744 on the level of LDL-R expression, HeLa cells were treated with SCA-744 at 50 or 500 μM concentrations for 24 or 48 hours. Cells were harvested, cell lysate prepared and then analysed by immunoblotting using an anti-human LDL-R antibody (C7: sc-18823, Santa Cruz Biotechnologies).

neuroblastoma cells = assay: Protection from MPP+ induced oxidative stress, CellTiter-Glo viability; assay type: cell-based
Description: Several in-vivo and in-vitro studies find that MPP+ exerts oxidative stress on cells^22. MPP+×toxicity is based on its uptake into dopaminergic neurons. MPP+ accumulate into the mitochondria, inhibiting the complex-I leading to ATP depletion, increased reactive oxygen species (ROS) production, and apoptotic cell death^23. 12 h following MPP+ treatment and SCA-744 and CAL-X incubation, cell viability was assessed using a standard ATP method, CellTiter-Glo® Luminescent Cell Viability Assay.

[3] = tested on: Human neuroblastoma SH-SY5Y cells; assay: Untargeted metabolic profiling of SH-SY5Y cells; assay type: cell-based; settings: 500 μM, 24 h
Description: Human neuroblastoma SH-SY5Y cells were differentiated and treated with 500 μM SCA-744 for 24 h. Cell pellets were extracted using a MeOH:ACN:H2O (2:2:1, v/v) solvent mixture. Untargeted metabolic profiling was performed at the VBCF Metabolomic Unit (www.vbcf.ac.at) employing high-resolution mass spectrometry.
The untarged metabolomic data was analyzed with the Compound Discover Software (version 3.1). The first set of metabolites were analyzed through the internal database of the Vienna Biocenter Core facility. The measured retention time of a compound was compared to the retention time of a standard previously measured. In the case there was a MS2 spectrum available, this was also taken into consideration for identification. The second set of metabolites was annotated with mzCloud (match at least 75%). Identification was based on mzCloud database comparison of measured molecular weight (5 ppm tolerance) and MS2 spectra. The third set of metabolites were annotated via ChemSpider identification (CSID) through molecular weight matching (max. mass tolerance 5 ppm). P-values were calculated by the Compound Discover Software from biological and technical (T1-T2, MS) replicates. For further annotations KEGG, HMDB, BioCyc, Metabolika and PubChem databases were used.
The metabolites with a false discovery rate (FDR)<0.05 along with p-values and corresponding fold-change were extracted and subjected to chemical and metabolic network enrichment analysis. Enrichment analysis based on chemical similarity was conducted using ChemRich that is independent of biochemical pathway assignments, but rather utilizes Tanimoto substructure similarity coefficients and medical subject headings ontology to generate non-overlapping clusters of metabolites into distinct chemical classes. Statistical testing was determined by Kolmogorv-Smirnov testing and an FDR adjusted P value of <0.05 was considered significant.
Comparison of relative metabolite abundance between control and -treated cells was determined by unpaired univariate analysis. Calculated P values were adjusted based on an FDR of 0.05 and filtered by log Fold-Change (log FC) analysis (Table 3). For illustrative purposes the metabolites are annotated on the resulting volcano plot with log FC>1 log FC<−2. A total of 261 annotated metabolites were found with an FDR<0.05.

O=S(=O)(O)c1cc2c(O)c(c1)Cc1cc(S(=O)(=O)O)cc(c1O)Cc1cc(S(=O)(=O)O)cc(c1O)Cc1cc(S(=O)(=O)O)cc(c1O)C2 [SCA-744, 4-sulfocalix[4]arene]
NQO1 immunoblot signal increase (NQO1; HeLa, 500 μM, prominent signal already at 50 μM, none in control): approximately 3.5 fold
NQO1 protein expression (immunoblot) (NQO1; HeLa, 50, 100 and 500 μM): significantly increases the expression; also recorded: very significant up-regulation
level of LDL-R (immunofluorescence, semi-quantitative) (LDL-R [1]): significantly increased the level of LDL-R in a concentration dependent manner
EC50 (HELA cells; Homo sapiens, HELA, 24 h incubation, H2O2 50 mM, read-out: EC50 rescue from H2O2 toxicity): 200 nM
protection from H2O2 induced damage (HELA cells; mammalian cells, FIG. 20): protects against oxidative stress from H2O2 induced damage
LDL-R protein (immunoblot) (LDL-R [2]): induces the expression of LDLR; also recorded: the LDL-R was detected in the cell lysates
protection from MPP+ induced apoptosis / damage (neuroblastoma cells; 0.1-1000 μM, 12 h): protects against oxidative stress from MPP+ induced damage; also recorded: protected neuroblastoma cells from MPP+ induced apoptosis
concentration for MPP+ protection (neuroblastoma cells; 12 h following MPP+ treatment, CellTiter-Glo): 1 µM
Glycolysis and NADH, as well as ATP [3]: significant down-regulated
Hypoxanthine and Inosine abundance [3]: highly significant up-regulated
Lysophosphatidyl (LPI) abundance [3]: most up-regulated metabolite
Thymine and adenine nucleotides, dipeptides and amino acids [3]: down-regulated
pharmacological response in metabolic analysis [3]: altered lipid metabolism, down-regulated glycolysis and reduction of NADH, ATP
